Assay results published in PMC3020970, “K70Q Adds High-Level Tenofovir Resistance to “Q151M Complex” HIV Reverse Transcriptase through the Enhanced Discrimination Mechanism” (PLoS ONE, 2011).
Values joined by “and” are separate entries in the source; they are usually repeats but may differ in a detail not shown here. Equal entries are not always repeated.

Columns and labels:
Assay in all cases: Pre-steady state kinetics of binding and incorporation
Assay type in all cases: biochemical
HIV-1 RT Q151Mc = target: T1, HIV-1 RT Q151Mc (Human immunodeficiency virus type 1 group M subtype B, UniProt P03366, A661V/F676L/F715Y/Q750M/V674I)
T1 construct: made in house; host or cells: Escherichia coli BL21
Procedure: (§1) Determination of active site concentrations in the different preparations of WT and mutant RTs were performed using pre-steady state burst experiments. […] The reactions were quenched at various times (10 ms to 5 s) by adding EDTA to a final concentration of 50 mM. The amounts of product (P18-dAMP) were quantitated and fit to the following burst equation: [drawing 1] (1) where A is the amplitude of the burst phase that represents the RT-DNA complex at the start of the reaction, k obs is the observed burst rate constant for dNTP incorporation, k ss is the steady state rate constant, and t is the reaction time. The rate constant of the linear phase (kcat) can be estimated by dividing the slope of the linear phase by the enzyme concentration. The active site concentration and template/primer binding affinity (KD-DNA) were determined by plotting the amplitude (A) against the concentration of template/primer. The data were fit using non-linear regression to a quadratic equation: [drawing 2] (2) where KD is the dissociation constant for the RT-DNA complex, and [RT] is the concentration of active polymerase molecules. Subsequent biochemical experiments were performed using corrected active site concentrations, [43].
(§2) HIV-1 RT (50 nM active sites) was pre-incubated with 50 nM T31/P18 in one syringe (Syringe A), whereas varying concentrations of dNTP and 10 mM MgCl2 were kept in another syringe (Syringe B). The solutions were rapidly mixed to initiate reactions, which were subsequently quenched at various times (5 ms to 10 s) by adding EDTA to a final concentration of 50 mM. The products from each quenched reaction were resolved, quantitated, and plotted as described above. The data were fit by non-linear regression to the burst equation (Eq 1).
(§3) To obtain the dissociation constant KD-dNTP for dNTP binding to the RT-DNA complex, the observed burst rates (kobs) were fit to the hyperbolic equation (Eq. 3) using nonlinear regression: [drawing 3] (3) where kpol is the optimal rate of dNTP incorporation.
(§4) The kinetics of TFV incorporation by the WT and mutant enzymes were carried out in a manner similar to that employed for natural dNTP substrate except the time of reactions. It was noted that the mutant enzymes required longer time to incorporate TFV compared to the WT HIV-1 RT (detailed in the Results section).

HIV-1 RT WT = target: T2, HIV-1 RT WT (Human immunodeficiency virus type 1 group M subtype B, UniProt P03366)
T2 construct: made in house; host or cells: Escherichia coli BL21
Procedure: as §1, §2, §3, §4

HIV-1 RT K70Q/Q151Mc = target: T3, HIV-1 RT K70Q/Q151Mc (Human immunodeficiency virus type 1 group M subtype B, UniProt P03366, A661V/F676L/F715Y/K669Q/Q750M/V674I)
T3 construct: made in house; host or cells: Escherichia coli BL21
Procedure: as §1, §2, §3, §4

SMILES: CC(Cn1cnc2c(N)ncnc21)OCP(=O)(O)OP(=O)(O)OP(=O)(O)O (stereo in doubt) [TFV-DP, tenofovir-diphosphate]
- Selectivity (k pol/Kd)dATP/(k pol/Kd)TFV-DP (HIV-1 RT Q151Mc): 11
- k pol/Kd (HIV-1 RT Q151Mc): 300000 M⁻¹ s⁻¹ and 300000 ± 60000 M⁻¹ s⁻¹
- k pol (HIV-1 RT Q151Mc; T31/P18, 37°C): 1.3 ± 0.03 s⁻¹
- Kd (HIV-1 RT Q151Mc; binding to RT-DNA complex): 4.3 ± 0.8 µM
- Selectivity (k pol/Kd)dATP/(k pol/Kd)TFV-DP (HIV-1 RT WT): 1.6
- k pol/Kd (HIV-1 RT WT): 1.47e+06 M⁻¹ s⁻¹ and 1.47e+06 ± 70000 M⁻¹ s⁻¹
- k pol (HIV-1 RT WT; T31/P18, 37°C): 2.8 s⁻¹ and 2.8 ± 0.08 s⁻¹
- Kd (HIV-1 RT WT; binding to RT-DNA complex): 1.9 ± 0.2 µM
- Selectivity (k pol/Kd)dATP/(k pol/Kd)TFV-DP (HIV-1 RT K70Q/Q151Mc; K70Q/Q151Mc RT): 26.3
- k pol/Kd (HIV-1 RT K70Q/Q151Mc; K70Q/Q151Mc RT): 110000 M⁻¹ s⁻¹ and 110000 ± 30000 M⁻¹ s⁻¹
- Reduced affinity for TFV than the WT enzyme (HIV-1 RT K70Q/Q151Mc; K70Q/Q151Mc RT vs WT RT): more than 4.5 fold
- k pol (HIV-1 RT K70Q/Q151Mc; K70Q/Q151Mc RT, T31/P18, 37°C): 1.0 ± 0.03 s⁻¹
- Kd (HIV-1 RT K70Q/Q151Mc; K70Q/Q151Mc RT, binding to RT-DNA complex): 8.9 ± 2.1 µM
